Test results as given in patent US11008340B2, “Modulators of ROR-gamma” (Vitae Pharmaceuticals, LLC, priority 2015, dated 2021).
pIC50, pKi: −log10 of the molar value. Read-outs that look alike come from different tables or passages of the source.

Tests used:
[1] = target: T1, full-length RORγt in Jurkat cells (Homo sapiens, UniProt P51449); test: RORγt 5×RORE Assay in Jurkat Cells (Assay 2); type: cell-based; details: 5×RORE luciferase reporter
T1 construct: transcriptional activity of the full-length RORγt in Jurkat cells; host or cells: Jurkat cells (ATCC TIB-152)
T1 sequence (P51449 1-497 isoform P51449-2): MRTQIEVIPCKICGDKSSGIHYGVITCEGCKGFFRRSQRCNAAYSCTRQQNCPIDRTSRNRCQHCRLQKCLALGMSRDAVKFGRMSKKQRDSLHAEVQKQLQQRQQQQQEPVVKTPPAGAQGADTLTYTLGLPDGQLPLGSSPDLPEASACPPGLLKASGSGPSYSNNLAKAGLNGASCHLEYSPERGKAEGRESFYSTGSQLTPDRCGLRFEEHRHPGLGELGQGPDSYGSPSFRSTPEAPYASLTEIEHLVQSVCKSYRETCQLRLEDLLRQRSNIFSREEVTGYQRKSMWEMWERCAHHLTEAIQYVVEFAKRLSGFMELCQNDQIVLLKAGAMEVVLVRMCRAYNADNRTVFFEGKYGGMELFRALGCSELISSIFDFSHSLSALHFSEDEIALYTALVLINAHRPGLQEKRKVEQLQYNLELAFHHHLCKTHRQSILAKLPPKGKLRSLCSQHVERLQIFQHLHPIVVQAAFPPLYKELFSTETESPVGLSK
Summary of the method: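 Inverse agonism measured as reduced NanoGlo signal from secreted NanoLuc in conditioned supernatant after 16-18 hrs compound exposure (37° C, 0.1% DMSO). Reporter: 5×RORE-driven secNluc, co-transfected with full-length RORγt into Jurkat cells cultured in delipidated-FBS, phenol-red-free RPMI.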

[2] = target: T2, recombinant RORγ Ligand Binding Domain (LBD) protein (Homo sapiens, UniProt P51449); test: Radio-Ligand RORγ Binding Assay (Assay 1); details: radio-ligand competition, RORγ LBD, read-out: Avg ROR Bind Ki
T2 construct: 6×His; GST
T2 sequence (P51449 269-508 limits assumed): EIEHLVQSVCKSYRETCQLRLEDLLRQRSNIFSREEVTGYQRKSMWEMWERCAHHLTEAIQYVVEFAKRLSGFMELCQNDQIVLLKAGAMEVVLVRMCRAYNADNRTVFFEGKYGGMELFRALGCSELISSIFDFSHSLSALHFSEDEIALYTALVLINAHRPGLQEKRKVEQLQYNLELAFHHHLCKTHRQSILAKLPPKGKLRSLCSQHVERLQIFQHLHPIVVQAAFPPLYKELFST
Summary of the method: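 Cell-free SPA competition between compound and 25-hydroxy[26,27-^3H]-cholesterol for 6×His-GST-tagged RORγ LBD in 50 mM HEPES pH 7.4 with NaCl, MgCl2, glycerol, CHAPS, octylglucoside and DTT. Mix was shaken 20 min, held 10 min at rt, then read after poly-Lys YSi beads. IC50 came from a four-parameter fit, and Ki from radioligand KD.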

[3] = 25-hydroxy [26,27-3H]-cholesterol
[4] = Table 20, read-out: Avg ROR γt/5x IC5

| Structure (SMILES) | pIC50 ([1]; read-out: Avg ROR γt/5x IC50) | pKi [2, 3] | pIC50 [1, 4] | pIC50 ([1]; head without unit (Tables 15, 17), read-out: Avg ROR γt/5x IC50) | pKi ([2]; head without unit (Tables 15, 17)) |
| --- | --- | --- | --- | --- | --- |
| CCS(=O)(=O)c1ccc([C@H](CO)NC(=O)c2ccc3c(OCC4CC(F)(F)C4)nc(C)cc3c2)cc1 [Hy1A-12, (R)-1-((3,3-difluorocyclobutyl)methoxy)-N-(1-(4-(ethylsulfonyl)phenyl)-2-hydroxyethyl)-3-methylisoquinoline-6-carboxamide] | < 6.00 | > 7.00 |  |  |  |
| CCS(=O)(=O)c1ccc([C@H](CO)NC(=O)c2ccc3c(OC[C@H]4CC[C@H](C(F)(F)F)CC4)nc(Cl)cc3c2)cc1 [Hy1A-11, 3-chloro-N-((R)-1-(4-(ethylsulfonyl)phenyl)-2-hydroxyethyl)-1-(((1r,4R)-4-(trifluoromethyl)cyclohexyl)methoxy)isoquinoline-6-carboxamide] | > 7.00 | > 7.00 |  |  |  |
| CCS(=O)(=O)c1ccc(CNC(=O)c2ccc3c(c2)CCN(Cc2ccc(F)cc2)C3C(C)C)cc1 (racemic) [Hy2A-13, N-(4-(ethylsulfonyl)benzyl)-2-(4-fluorobenzyl)-1-isopropyl-1,2,3,4-tetrahydroisoquinoline-6-carboxamide] | > 7.00 | > 7.00 |  |  |  |
| CCS(=O)(=O)c1ccc([C@H](CO)NC(=O)c2ccc3c(OC[C@H]4CC[C@H](C(F)(F)F)CC4)nc(C)cc3c2)nc1 (single isomer, unassigned) [Hy1A-22.1] | > 7.00 | > 7.00 |  |  |  |
| CC[C@@H]1CN(C2CCC(F)(F)CC2)Cc2cc(C(=O)N[C@@H](CO)c3ccc(S(=O)(=O)CC)cc3)ccc21 (single isomer, unassigned) [Hy7-32.1] |  | > 7.00 | < 6.00 |  |  |
| CCS(=O)(=O)c1ccc(CNC(=O)c2cnc3c(c2)CCN(Cc2ccc(Cl)cc2)C3C(C)C)cc1 (single isomer, unassigned) [Hy2B-8.1] |  |  |  | 6.00 to 7.00 | > 7.00 |
| CCc1c2ccc(C(=O)N[C@@H](CO)c3ccc(S(=O)(=O)CC)cc3)cc2nn1C[C@H]1CC[C@H](C(F)(F)F)CC1 [Hy3A-5, 3-ethyl-N-((R)-1-(4-(ethylsulfonyl)phenyl)-2-hydroxyethyl)-2-(((1r,4R)-4-(trifluoromethyl)cyclohexyl)methyl)-2H-indazole-6-carboxamide] | > 7.00 | > 7.00 |  |  |  |
| CC[C@H]1CN(c2ncc(Cl)cn2)Cc2cc(C(=O)N[C@@H](CO)c3ccc(S(=O)(=O)CC)cc3)ccc21 (single isomer, unassigned) [Hy7-6.2] |  | > 7.00 | < 6.00 |  |  |
| CCS(=O)(=O)c1ccc(CNC(=O)c2ccc3c(c2)CN(c2nccc(C(F)(F)F)n2)C[C@@H]3C(C)C)cc1 (single isomer, unassigned) [Hy7-14.2] |  | > 7.00 | < 6.00 |  |  |
| CC[C@@H]1CN(c2ccc(C(F)(F)F)cc2)C(=O)c2cc(C(=O)NCc3ccc(S(=O)(=O)CC)cc3)ccc21 (single isomer, unassigned) [Hy7-12.1] |  | > 7.00 | 6.00 to 7.00 |  |  |
| CCS(=O)(=O)c1ccc(CNC(=O)c2sc3nc(C)nc(OCc4ccc(C(F)(F)F)cc4)c3c2C)cc1 [Hy6-1, N-(4-(ethylsulfonyl)benzyl)-2,5-dimethyl-4-((4-(trifluoromethyl)benzyl)oxy)thieno[2,3-d]pyrimidine-6-carboxamide] | 6.00 to 7.00 | > 7.00 |  |  |  |
| CCS(=O)(=O)c1ccc([C@H](CO)NC(=O)c2ccc3c(OCC4CCOCC4)nc(C)cc3c2)cc1 [Hy1A-1, (R)-N-(1-(4-(ethylsulfonyl)phenyl)-2-hydroxyethyl)-3-methyl-1-((tetrahydro-2H-pyran-4-yl)methoxy)isoquinoline-6-carboxamide] | < 6.00 | > 7.00 |  |  |  |
| CCS(=O)(=O)c1ccc([C@H](CO)NC(=O)c2sc3nc(C)nc(OCc4ccc(C(F)(F)F)cc4)c3c2C)cc1 [Hy6-3, (R)-N-(1-(4-(ethylsulfonyl)phenyl)-2-hydroxyethyl)-2,5-dimethyl-4-((4-(trifluoromethyl)benzyl)oxy)thieno[2,3-d]pyrimidine-6-carboxamide] | > 7.00 | > 7.00 |  |  |  |
| CCOC(=O)c1cnc(N2Cc3cc(C(=O)NCc4ccc(S(=O)(=O)CC)cc4)ccc3[C@H](C(C)C)C2)nc1C(F)(F)F (single isomer, unassigned) [Hy7-26.1] |  | > 7.00 | > 7.00 |  |  |
